Assay results taken from paper PMC9916978, “Enantioselective Human Serum Albumin Binding of Apremilast: Liquid Chromatographic, Fluorescence and Molecular Docking Study” (International Journal of Molecular Sciences, 2023).

Tests used:
[1] = target: T1, human serum albumin (HSA) (Homo sapiens, UniProt P02768); experiment: Albumin-bound percentage by zonal elution chromatography on Chiral-HSA column, extrapolated to zero organic modifier; assay type: binding; details: for Bound percentage (b%), Average + SD%: average over five organic modifiers
T1 construct: purchased Chiral Technologies Inc., a subsidiary of Daicel Chemical Industries Ltd
Text: As it was observed, the decrease of the organic modifier percentage in the mobile phase caused an exponential increase in the retention times of both enantiomers. Therefore, for the calculations, the logarithm of the retention factors was plotted against the organic modifier proportion. With this conversion, a linear relationship was obtained, which could be easily extrapolated to zero for supposedly the best imitation of in vivo conditions. As the intercept of these linear equations, a k value is expressed that can be used to calculate the bound% according to Equation (7).
The separation factor (α) was calculated as follows:(6) α=k2/k1 where k1 and k2 are the retention factors of the first- and second-eluting enantiomer, respectively. The k values were used to calculate the albumin-bound percentage (b%) using Equation (7) by zonal elution chromatography:(7) b%=k/1+k·100

[2] = target: T1, human serum albumin (HSA); experiment: Fluorescence quenching titration of HSA, stability constants; assay type: binding; details: 10 mM phosphate buffer pH 7, 25 °C, excitation 280 nm
Procedure: The observed fluorescence intensities of HSA and the HSA–APR complexes at increasing APR concentrations were plotted against the total concentration of APR in the solution, and the stability constants were calculated according to Equation (18) by nonlinear parameter fitting.
The fluorescence measurements were carried out on a Jasco J-815 spectropolarimeter with a connected CDF-426L fluorescence detector and a temperature-controlled 10 mm cuvette holder (Jasco, Tokyo, Japan), thermostated to 25 °C with a Lauda water bath circulation thermostat (Lauda Brinkmann, Königshofen, Germany). Spectra Manager software (ver.: 2.08.04) was used for data analysis. The fluorescence analysis was performed with an excitation spectrum of 260–300 nm and detection of the cumulative fluorescence spectrum. […] A volume of 3 mL of the HSA stock solution with an HSA concentration of 0.32 μM was titrated with 2.5–30 μL of S- and, separately, R-APR solutions prepared at 3.75 mg mL^−1 in MeOH, which equals to a range of 6.8–80.6 μM of APR in the measured solution.
The stability constants of both enantiomers were calculated. […] Note that since the fluorescence signal of the ligand (APR) was subtracted for each sample, (IAPR) could be excluded from this equation (8) Iobs.=IHSA·χHSA+IAPR−HSA·χAPR−HSA where ΧHSA is the mole fraction of free HSA, while ΧAPR-HSA is the mole fraction of the APR-HSA complex. […]

[3] = extrapolation to zero percentage of 1-propanol
[4] = extrapolation to zero percentage of ACN
[5] = extrapolation to zero percentage of EtOH
[6] = extrapolation to zero percentage of IPA
[7] = extrapolation to zero percentage of MeOH

T1 sequence (P02768 25-609): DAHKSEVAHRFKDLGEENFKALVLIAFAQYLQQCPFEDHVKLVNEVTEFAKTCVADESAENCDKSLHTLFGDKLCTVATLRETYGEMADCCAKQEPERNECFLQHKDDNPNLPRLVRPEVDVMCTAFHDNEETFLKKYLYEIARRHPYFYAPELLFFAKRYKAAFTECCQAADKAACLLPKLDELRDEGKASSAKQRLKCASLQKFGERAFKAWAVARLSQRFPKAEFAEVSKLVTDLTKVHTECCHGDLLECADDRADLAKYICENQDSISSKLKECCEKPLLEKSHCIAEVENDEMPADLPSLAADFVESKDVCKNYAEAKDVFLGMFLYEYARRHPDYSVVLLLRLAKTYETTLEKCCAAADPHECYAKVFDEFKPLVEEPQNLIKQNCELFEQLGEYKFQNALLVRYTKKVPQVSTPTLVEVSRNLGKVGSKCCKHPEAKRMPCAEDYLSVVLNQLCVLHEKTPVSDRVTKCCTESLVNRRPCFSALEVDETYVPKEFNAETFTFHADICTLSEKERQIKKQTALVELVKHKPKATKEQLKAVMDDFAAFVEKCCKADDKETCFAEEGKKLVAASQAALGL

Row | Structure (SMILES) | Bound percentage (b%), Average + SD% [1] | Bound percentage (b%) [1, 3] | Bound percentage (b%) [1, 4] | Bound percentage (b%) [1, 5] | Bound percentage (b%) [1, 6] | Bound percentage (b%) [1, 7] | stability constant K of the enantiomer–HSA complex [2]
1 | CCOc1cc([C@H](CS(C)(=O)=O)N2C(=O)c3cccc(NC(C)=O)c3C2=O)ccc1OC [R-APR] | 92.7 ± 1.5% | 94.0% | 91.3% | 91.4% | 92.1% | 94.5% | 6450 M⁻¹
2 | CCOc1cc([C@@H](CS(C)(=O)=O)N2C(=O)c3cccc(NC(C)=O)c3C2=O)ccc1OC [S-APR, apremilast] | 95.5 ± 1.3% | 96.4% | 93.7% | 94.8% | 95.7% | 96.8% | 10400 M⁻¹
